Assay [1] deals with T1, human FAP (Homo sapiens, UniProt Q12884).
T1 construct: the biotinylated His, Avi tag, human FAP (26-760, FAP-H82Q6); His; Avi tag (biotinylated); purchased AcroBiosystems FAP-H82Q6
T1 sequence (Q12884 26-760): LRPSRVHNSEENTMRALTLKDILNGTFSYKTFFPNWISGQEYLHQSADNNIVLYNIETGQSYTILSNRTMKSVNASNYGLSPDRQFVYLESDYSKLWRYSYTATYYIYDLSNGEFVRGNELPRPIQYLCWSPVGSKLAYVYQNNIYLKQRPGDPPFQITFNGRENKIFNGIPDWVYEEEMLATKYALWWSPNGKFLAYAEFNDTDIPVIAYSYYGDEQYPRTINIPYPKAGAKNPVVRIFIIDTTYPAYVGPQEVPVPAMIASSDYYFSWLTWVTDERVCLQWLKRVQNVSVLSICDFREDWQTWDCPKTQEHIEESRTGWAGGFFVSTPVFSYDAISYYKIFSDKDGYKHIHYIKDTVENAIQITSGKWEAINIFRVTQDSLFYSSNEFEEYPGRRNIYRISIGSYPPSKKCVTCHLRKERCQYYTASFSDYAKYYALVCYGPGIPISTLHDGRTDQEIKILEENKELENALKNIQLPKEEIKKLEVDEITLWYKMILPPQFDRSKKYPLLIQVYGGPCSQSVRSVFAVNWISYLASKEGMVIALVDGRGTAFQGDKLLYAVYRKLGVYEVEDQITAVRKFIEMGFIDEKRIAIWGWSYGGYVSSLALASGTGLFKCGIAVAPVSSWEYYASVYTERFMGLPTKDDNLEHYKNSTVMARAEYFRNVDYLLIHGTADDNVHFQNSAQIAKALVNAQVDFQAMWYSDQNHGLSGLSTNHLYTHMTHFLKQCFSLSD
Description: Surface plasmon resonance (SPR) for peptide affinity, human FAP. The note with it: read-out: h. FAP, SPR, KD. The class given is binding. The method, then:
Peptide affinities (KD) were determined by SPR using a Biacore™ 8K device (Cytiva) towards the following proteins: biotinylated His, Avi tag, human FAP (26-760, FAP-H82Q6), biotinylated His, Avi tag, mouse FAP (26-761, FAP-M82Q5), His tag, human DPP4 (34-766, DP4-H82E3), all purchased from AcroBiosystems and His tag, mouse DPP4 (29-760, 954-SE) from R&D Systems. The FAP proteins and their homologous were diluted to a concentration of 2 μg/mL into acetate buffer pH 5.5, then immobilized onto a CM5 sensorchip (Cytiva, BR-1005-30) to reach a response around 2000 R U. The running buffer HBS-EP+pH 7.6 (20× from Teknova CAT. No: H8022) contained 10 mM HEPES pH 7.6, 150 mM NaCl, 3 mM EDTA, 0.05% Tween20 and 2% DMSO. Experiments were carried out at 25° C. using a flow rate of 30 μL/min. Compounds were tested in single cycle kinetic mode at 8 different concentrations. Curve fitting was performed using the Biacore™ 8K evaluation software. The sensorgrams were fitted by applying a 1:1 binding model to calculate kinetic rate constants and equilibrium dissociation constants (KD).
For this assay, the setup had the same conditions (flow rate, running buffer, peptide dilution) as described above for the CM5 method. The oligo CAP reagent obtained in the CAPture Kit (Ref. 28920234) was 1/5 diluted into running buffer and used with a contact time of 300 s at a flow rate of 2 μL/min. The human and mouse FAP constructs described above were used (from AcroBiosystems or produced in house). The FAP proteins were diluted to a concentration of 2 μg/mL into acetate pH 5.5, 0.05% Tween20 and used with a contact time of 600 s at a flow rate of 10 μL/min. The peptides were tested with an association time of 280 s followed by a dissociation time of 3000 s at a flow rate of 30 μL/min. The regeneration was done using the regeneration solution (8 M guanidine-HCl, 1 M NaOH) as obtained with a contact time of 270 s at a flow rate of 10 μL/min. […] The compounds marked with an asterisk were tested against human and mouse DDP4.
(In general: SPR reads the build-up and loss of mass on a sensor chip optically.)

In assay [2] the target is T2, mouse FAP (Mus musculus, UniProt P97321).
T2 construct: biotinylated His, Avi tag, mouse FAP (26-761, FAP-M82Q5); His; Avi tag (biotinylated); purchased AcroBiosystems FAP-M82Q5
T2 sequence (P97321 26-761): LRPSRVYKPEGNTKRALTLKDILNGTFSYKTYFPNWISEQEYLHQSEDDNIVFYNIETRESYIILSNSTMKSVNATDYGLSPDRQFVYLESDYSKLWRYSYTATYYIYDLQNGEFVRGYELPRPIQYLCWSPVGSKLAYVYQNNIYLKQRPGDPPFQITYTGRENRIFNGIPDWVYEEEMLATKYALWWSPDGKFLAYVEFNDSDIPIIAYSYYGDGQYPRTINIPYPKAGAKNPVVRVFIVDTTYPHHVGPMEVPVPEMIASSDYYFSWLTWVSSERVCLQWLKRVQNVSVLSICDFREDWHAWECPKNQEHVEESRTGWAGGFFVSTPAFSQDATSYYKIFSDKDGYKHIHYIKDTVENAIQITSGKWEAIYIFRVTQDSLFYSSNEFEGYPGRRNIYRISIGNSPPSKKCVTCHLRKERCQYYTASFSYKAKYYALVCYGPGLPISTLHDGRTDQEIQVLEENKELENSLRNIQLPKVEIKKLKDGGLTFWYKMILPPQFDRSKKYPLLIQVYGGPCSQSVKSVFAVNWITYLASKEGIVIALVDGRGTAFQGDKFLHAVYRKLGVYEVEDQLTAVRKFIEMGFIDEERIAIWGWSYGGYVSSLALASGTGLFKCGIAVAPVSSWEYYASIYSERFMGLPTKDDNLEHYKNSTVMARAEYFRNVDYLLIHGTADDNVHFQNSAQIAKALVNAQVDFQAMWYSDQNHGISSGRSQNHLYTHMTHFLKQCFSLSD
Description: Surface plasmon resonance (SPR) for peptide affinity, mouse FAP. The class given is binding. The gist of the method: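 KD values come from a 1:1 kinetic fit of single-cycle SPR data: 8 peptide concentrations, 25 °C, 30 μL/min, HEPES-buffered saline pH 7.6 with 2% DMSO. Targets were His/Avi-tagged human (26-760) or mouse (26-761) FAP, amine-coupled to CM5 or held on a CAPture chip.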

Assay [3] addresses T1, human FAP. Description: Enzymatic FAP competition assay (Z-Gly-Pro-AMC fluorescence), human FAP. The class given is biochemical. To be noted: read-out: h. FAP, Enz., IC50. The gist of the method:
(§1)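 IC50 values come from curve fitting of duplicate % inhibition data on AMC fluorescence (ex 380, em 460 nm) after 4 h at 22-24° C with 50 μM Z-Gly-Pro-AMC. Beforehand, peptides up to 1 μM (14 levels) sat 24 h with 0.01 nM human (26-760) or mouse (26-761) tagged FAP in phosphate buffer pH 7.5, NaCl, Tween20, 1% DMSO.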

The target of assay [4] is T2, mouse FAP. Description: Enzymatic FAP competition assay (Z-Gly-Pro-AMC fluorescence), mouse FAP. To be noted: read-out: m. FAP, Enz., IC50. The class given is biochemical. The gist of the method: as §1

The record followed here is patent US20250090699A1, “FAP TARGETING CYCLIC PEPTIDES AND CONJUGATES THEREOF” (Novartis AG, priority 2023, published 2025).

One may read the Kd as the free concentration of one partner at which half of the binding sites on the other are occupied at equilibrium, for simple one-to-one binding. Usually IC50 stands for the concentration that inhibits the measured activity by half.

Read-outs that look alike come from different tables or passages of the source. Starred links: 1 amine or outer side, 2 acyl side, 3 side chain; linkers in the order of their positions; H or OH if unused. Positions of bridges follow the written chain, without caps; N, C: chain ends. Non-standard residues stand in square brackets, D forms with d. Residues, ends and D or L forms follow the SMILES beside them. Groups on a side chain read outwards from the residue. Chains are numbered I, II in the order given. *: point of attachment. F(4OEtNHDOTA-Lu) = lutetium complex of (S)-2,2',2''-(10-(2-((2-(4-(2-amino-2-carboxyethyl)phenoxy)ethyl)amino)-2-oxoethyl)-1,4,7,10-tetraazacyclododecane-1,4,7-triyl)triacetic acid (Phe with 4-O-ethylamino-DOTA-Lu), O=C([O-])CN1CCN(CC(=O)[O-])CCN(CC(=O)NCCOc2ccc(C[C@H](N[*:1])C(=O)[*:2])cc2)CCN(CC(=O)[O-])CC1.[Lu+3]; X2 = O=C(O)CN1CCN(CC(=O)O)CCN(CC(=O)NC(CC(=O)NCCOCCOCCOCC(=O)[*:1])CC(=O)NCCOCCOCCOCC(=O)[*:2])CCN(CC(=O)O)CC1; DOTA = O=C(O)CN1CCN(CC(=O)O)CCN(CC(=O)*)CCN(CC(=O)O)CC1; Nicotinoyl(6-NMe3+) = C[N+](C)(C)c1ccc(C(=O)*)cn1; Phe(4-CH2NH2) = NCc1ccc(C[C@H](N)C(=O)O)cc1; Piperazinyl(4-CH2COOH) = O=C(O)CN1CCN(*)CC1; AEF = NCCOc1ccc(C[C@H](N)C(=O)O)cc1; NMeF = CN[C@@H](Cc1ccccc1)C(=O)O; Aoc(2) = CCCCCC[C@H](N)C(=O)O; Ahp(2) = CCCCC[C@H](N)C(=O)O; AEEA = NCCOCCOCC(=O)O; CO = O=C([*:1])[*:2] A value given as a limit tells only on which side of the number the result lay.

As for `CCCCC[C@@H]1NC(=O)[C@H](Cc2ccc(OCCNC(=O)COCCOCCOCCNC(=O)CC(CC(=O)NCCOCCOCCOCC(=O)NCCOc3ccc(C[C@@H]4NC(=O)[C@H](Cc5ccccc5)N(C)C(=O)CNC(=O)[C@H](CCCCNC(=O)N5CCN(CC(=O)O)CC5)NC(=O)[C@H]5CCCN5C(=O)[C@H](CC(=O)O)NC(=O)[C@H](Cc5ccc(O)cc5)NC(=O)CNC(=O)[C@H](Cc5c[nH]c6ccccc56)NC(=O)[C@H](CCCCC)NC4=O)cc3)NC(=O)CN3CCN(CC(=O)O)CCN(CC(=O)O)CCN(CC(=O)O)CC3)cc2)NC(=O)[C@H](Cc2ccccc2)N(C)C(=O)CNC(=O)[C@H](CCCCNC(=O)N2CCN(CC(=O)O)CC2)NC(=O)[C@H]2CCCN2C(=O)[C@H](CC(=O)O)NC(=O)[C@H](Cc2ccc(O)cc2)NC(=O)CNC(=O)[C@H](Cc2c[nH]c3ccccc23)NC1=O` [Example M4] (I: cyclo(K([CO-Piperazinyl(4-CH2COOH)])G[NMeF][AEF][Ahp(2)]WGYD[dP]) / II: cyclo(K([CO-Piperazinyl(4-CH2COOH)])G[NMeF][AEF][Ahp(2)]WGYD[dP]); linker I:4-II:4 via X2), the Kd at human FAP [1] was 0.32 nM; on mouse FAP [2], 0.51 nM. Also, the 50% inhibitory concentration (IC50) on human FAP [3] was 0.38 nM; at mouse FAP [4] it was 1.1 nM.
For `CCCCCC[C@@H]1NC(=O)[C@H](Cc2ccc(CNC(=O)COCCOCCNC(=O)c3ccc([N+](C)(C)C)nc3)cc2)NC(=O)[C@H](Cc2ccccc2)N(C)C(=O)CNC(=O)CNC(=O)[C@H]2CCCN2C(=O)[C@H](CC(=O)O)NC(=O)[C@H](CCCCNC(=O)N2CCN(CC(=O)O)CC2)NC(=O)CNC(=O)[C@H](Cc2c[nH]c3ccccc23)NC1=O` [Example C57, Gly-Gly-NMePhe-F(4amPEG2NHCOPy3(4(NMe3)))-Aoc-Trp-Gly-K(COpipzaa)-Asp-D-Pro] (cyclo([Aoc(2)]WGK([CO-Piperazinyl(4-CH2COOH)])D[dP]GG[NMeF][Phe(4-CH2NH2)]([AEEA-Nicotinoyl(6-NMe3+)]))) the same measures were below 0.013 nM, below 0.014 nM, 0.006 nM and 0.016 nM.
Turning to `CCCCCC[C@@H]1NC(=O)[C@H](Cc2ccc(CNC(=O)COCCOCCNC(=O)CN3CCN(CC(=O)O)CCN(CC(=O)O)CCN(CC(=O)O)CC3)cc2)NC(=O)[C@H](Cc2ccccc2)N(C)C(=O)CNC(=O)CNC(=O)[C@H]2CCCN2C(=O)[C@H](CC(=O)O)NC(=O)[C@H](CCCCNC(=O)N2CCN(CC(=O)O)CC2)NC(=O)CNC(=O)[C@H](Cc2c[nH]c3ccccc23)NC1=O` [Example B1, Gly-Gly-NMePhe-F(4amPEG2NHDOTA)-Aoc-Trp-Gly-K(COpipzaa)-Asp-D-Pro] (cyclo(GG[NMeF][Phe(4-CH2NH2)]([AEEA-DOTA])[Aoc(2)]WGK([CO-Piperazinyl(4-CH2COOH)])D[dP])), the dissociation constant Kd was below 0.011 nM on human FAP [1] and below 0.018 nM on mouse FAP [2]. The results for the concentration for half-maximal inhibition (IC50) on human FAP [3] and at mouse FAP [4] were 0.005 nM and 0.013 nM, respectively.
For the molecule “Gly-Gly-NMePhe-F(4OEtNHDOTA-Lu)-Ahp-Trp-Gly-Tyr-Asp-D-Pro (cyclo(GG[NMeF][F(4OEtNHDOTA-Lu)][Ahp(2)]WGYD[dP]); also: Lu complex of DOTA) [Example C23]”, the Kd in the assay with human FAP [1] is below 0.009 nM; in the assay with mouse FAP [2], below 0.011 nM; with mouse FAP [2] (values marked ** : including further experimental repetition) it was below 0.06 nM. Also, the IC50 was 0.016 nM with human FAP [3] and 0.061 nM with mouse FAP [4].
